In US10028992B2, “Methods of treating muscular dystrophy” (BOARD OF REGENTS OF THE NEVADA SYSTEM OF HIGHER EDUCATION …, priority 2012, dated 2018):

Tested on: α7 integrin promoter
Assay: muscle cell-based assay: α7βgal+/− myoblasts/myotubes, LacZ reporter, β-galactosidase cleavage of FDG
Parameters: species or system mouse; Results in α7+/− β-galactosidase assay: scale not given here
Conditions: Myoblasts
Method in brief: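 Fluorescein generated from FDG by β-galactosidase reports α7 integrin promoter activity in differentiated myoblasts from α7+/− LacZ knock-in pups. Screening hits then went to dose-response, western blotting and a myostatin counterscreen.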

SMILES | Results in α7+/− β-galactosidase assay (0.5 uM) | Results in α7+/− β-galactosidase assay (1 uM) | Results in α7+/− β-galactosidase assay (5 uM) | Results in α7+/− β-galactosidase assay (10 uM) | Results in α7+/− β-galactosidase assay (20 uM) | Results in α7+/− β-galactosidase assay (40 uM)
CCC(=O)c1ccc(OCC(O)CN2CCOC(C)C2)cc1.O=C(O)C(=O)O (stereo not drawn) [drawing 611] | 0.222 | 0.08832 | −0.02345 | −0.1332 | 0.0354 | 0.02206
CC1CCN(C(CNS(=O)(=O)c2ccccc2)c2ccccc2)CC1 (stereo not drawn) [drawing 612] | 0.05229 | −0.05932 | −0.02531 | −0.1141 | −0.291 | −0.3822
COC(=O)c1ccc(/N=N/c2ccccc2)cc1 [drawing 613] | 0.1047 | 0.17 | −0.07402 | −0.1217 | −0.1237 | −0.2361
CN(CCC1CCCCO1)C(=O)CCc1nnc(CCCCc2ccccc2)o1 (stereo not drawn) [drawing 615] | −0.05982 | −0.07538 | −0.00182 | −0.02349 | 0.02509 | −0.00588
c1ccc(-c2nn[nH]n2)nc1 [drawing 616] | −0.1138 | −0.161 | 0.4758 | −0.06661 | 0.6134 | −0.02456
O=C(N/N=C/c1c[nH]c2ccccc12)c1cc(Cl)ccc1O [drawing 617] | −0.1174 | −0.2374 | 0.2235 | −0.05174 | −0.06378 | −0.0655
O=C(O)C(Cc1ccc(O)cc1)N1C(=O)c2ccccc2C1=O (stereo not drawn) [drawing 619] | 0.1486 | 0.2007 | 0.1591 | −0.04895 | 0.03548 | 0.007087
CCN(CC)C(=O)c1sc2nc(-c3ccc(OC)cc3)cn2c1C [drawing 620] | −0.00349 | −0.01981 | −0.06604 | −0.2175 | −0.4369 | −0.6089
Cc1ccsc1-c1nnc(S)n1C1CCCCC1 [drawing 621] | 0.007736 | 0.002953 | 0.06001 | −0.06828 | −0.1538 | −0.1034
O=C(N[C@@H](Cc1c[nH]c2ccccc12)C(=O)O)C1CCN(S(=O)(=O)c2cccs2)CC1 [drawing 622] | −0.07999 | −0.01966 | −0.1194 | −0.09397 | −0.02534 | −0.04251
COC(=O)Cn1c(=O)c2c(nc3n2CC(C)CN3Cc2ccccc2)n(C)c1=O (stereo not drawn) [drawing 623] | −0.176 | −0.2606 | −0.02637 | −0.1756 | −0.2725 | −0.3826
CCOC(=O)c1cc(C(=O)OCC)c(SCc2ccccc2)nc1O [drawing 624] | −0.1519 | −0.22 | 0.001928 | −0.1374 | −0.174 | −0.1694
Oc1nc2ccccc2nc1-c1c[nH]c2ccccc12 [drawing 625] | −0.1557 | −0.2438 | −0.1427 | −0.1781 | −0.49 | −0.6715
O=C(Nc1cc(-c2nc3ccccc3s2)ccc1Cl)c1ccc2c(c1)OCO2 [drawing 626] | −0.04702 | −0.1444 | 0.02573 | 0.1301 | −0.1679 | −0.4411
Cn1c(-c2ccccc2)cc2ccccc21 [drawing 627] | 0.02349 | −0.0996 | −0.05693 | −0.02616 | −0.2661 | −0.4026
COc1ccc(C(=O)/C=C2\C(=O)Nc3ccccc32)cc1OC [drawing 628] | 0.07545 | −0.02919 | 0.1241 | 0.1545 | −0.335 | −0.4748
CC(C(=O)Nc1ccc(C#N)cc1)N(C)CC(=O)Nc1cccc(F)c1 (stereo not drawn) [drawing 629] | −0.05058 | −0.1543 | −0.4207 | −0.5078 | −0.8278 | −0.7653
CC(C(=O)Nc1ccc(C#N)cc1)N(C)CC(=O)Nc1cccc(F)c1 (stereo not drawn) [drawing 630] | 0.01302 | −0.06275 | 0.01684 | 0.1242 | −0.01497 | −0.1721
CC1Cc2ccccc2N1C(=O)CSc1nnc(N)s1 (stereo not drawn) [drawing 631] | 0.1058 | −0.02327 | 0.003792 | 0.1155 | −0.02505 | −0.07326
CC(C)(C)NC(=O)NC(=O)CN1CCN(Cc2ccccc2)CC1 [drawing 632] | 0.1233 | −0.06967 | −0.04648 | 0.1725 | −0.02695 | −0.05859
COc1cc(C=O)ccc1OCC(=O)Nc1ccc2c(c1)OCO2 [drawing 633] | 0.04105 | −0.1736 | 0.4398 | 0.09536 | −0.06607 | −0.1156
Cc1ccccc1NC(=O)c1ccc2c(O)c(Sc3ccccc3)c(=O)[nH]c2c1 [drawing 634] | −0.01711 | −0.1427 | 0.008423 | −0.03481 | −0.0939 | −0.1611
Oc1nc(SCc2ccc(Cl)cc2)nc2ccsc12 [drawing 635] | 0.07667 | 0.02077 | −0.02435 | −0.03652 | −0.1552 | −0.139
